Experimental findings from PubChem BioAssay AID330 (DTP/NCI, 2004) are described below.

For the assay, the system named is P388 leukemia ip, CD2F1 mice, survival T/C. Description: NCI In Vivo Anticancer Drug Screen. Data for tumor model P388 Leukemia (intraperitoneal) in CD2F1 (CDF1) mice. To be noted: endpoint: median survival time, higher = longer survival. The method, boiled down: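 Mice carrying the transplanted tumor received test compound or vehicle. Survival was recorded in each group, and the value is the treated-group measurement divided by that of the vehicle-treated control group.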

Setting [1] is: dose: 100.0 mg/kg/injection, schedule: Q04DX003 (ip), vehicle: saline.
Where [2] appears, read: dose: 50.0 mg/kg/injection, schedule: Q01DX009 (ip), vehicle: saline.
The mark [3] stands for this setting: dose: 100.0 mg/kg/injection, schedule: Q01DX009 (ip), vehicle: saline.
Where [4] appears, read: dose: 200.0 mg/kg/injection, schedule: Q01DX009 (ip), vehicle: saline.
[5] abbreviates: dose: 12.5 mg/kg/injection, schedule: Q04DX003 (ip), vehicle: saline.
Setting [6] is: dose: 25.0 mg/kg/injection, schedule: Q04DX003 (ip), vehicle: saline.
[7] abbreviates: dose: 100.0 mg/kg/injection, schedule: Q04DX002 (ip), vehicle: saline with Tween-80.
Setting [8] is: dose: 200.0 mg/kg/injection, schedule: Q04DX002 (ip), vehicle: saline with Tween-80.
Setting [9] is: dose: 25.0 mg/kg/injection, schedule: Q01DX009 (ip), vehicle: saline with Tween-80.

“And” between values parts separate entries of the source, which are not always exact repeats. Equal values may be shown once. Toxic doses and inconclusive results are not listed.

Regarding `CN(C)CCC(=O)C(=Cc1ccccc1)C(=O)CCN(C)C`, the T/C was 114 % of control (dose: 50.0 mg/kg/injection, schedule: Q01DX005 (ip), vehicle: saline); 99 % of control (dose: 100.0 mg/kg/injection, schedule: Q01DX005 (ip), vehicle: saline); 101 % of control (dose: 200.0 mg/kg/injection, schedule: Q01DX005 (ip), vehicle: saline).

For `CCOC(=O)/C=C/C(F)(F)C(F)(F)C(F)(F)C(F)(F)C(F)(F)C(F)(F)C(F)(F)F`, the T/C by setting is: under setting [1], 100 % of control; (dose: 200.0 mg/kg/injection, schedule: Q04DX003 (ip), vehicle: saline) 100 % of control; (dose: 400.0 mg/kg/injection, schedule: Q04DX003 (ip), vehicle: saline) 100 % of control.

For `CCN(CC)C(C)(C)C(=O)/C=C/c1ccc(OC)cc1`, the T/C runs as follows: (dose: 60.0 mg/kg/injection, schedule: Q01DX005 (ip), vehicle: saline with Tween-80) 115 % of control; (dose: 120.0 mg/kg/injection, schedule: Q01DX005 (ip), vehicle: saline with Tween-80) 107 % of control; (dose: 240.0 mg/kg/injection, schedule: Q01DX005 (ip), vehicle: saline with Tween-80) 100 % of control.

As for `CCOc1ccc2nc(NN=O)sc2c1`, the T/C by setting is: (dose: 1.56 mg/kg/injection, schedule: Q01DX009 (ip), vehicle: water) 100 % of control; (dose: 3.12 mg/kg/injection, schedule: Q01DX009 (ip), vehicle: water) 100 % of control and 95 % of control; (dose: 6.25 mg/kg/injection, schedule: Q01DX009 (ip), vehicle: water) 101 % of control and 98 % of control; (dose: 12.5 mg/kg/injection, schedule: Q01DX009 (ip), vehicle: water) 100 % of control and 104 % of control; (dose: 25.0 mg/kg/injection, schedule: Q01DX009 (ip), vehicle: water) 100 % of control and 101 % of control; (dose: 50.0 mg/kg/injection, schedule: Q01DX009 (ip), vehicle: water) 104 % of control.

Consider `COc1ccc(OC)c(N=Cc2cccs2)c1`, for which the T/C under setting [2] was 90 % of control, the T/C under setting [3] was 100 % of control and the T/C under setting [4] was 92 % of control.

For `CC1(C)OC(CP(=O)(c2ccccc2)c2ccccc2)C(CP(=O)(c2ccccc2)c2ccccc2)O1` (centres undefined), the T/C by setting is: (dose: 50.0 mg/kg/injection, schedule: Q01DX005 (ip), vehicle: Klucel (hydroxypropylcellulose) (HPC)) 97 % of control; (dose: 100.0 mg/kg/injection, schedule: Q01DX005 (ip), vehicle: Klucel (hydroxypropylcellulose) (HPC)) 97 % of control; (dose: 200.0 mg/kg/injection, schedule: Q01DX005 (ip), vehicle: Klucel (hydroxypropylcellulose) (HPC)) 94 % of control.

Take `CC1CN1P(=O)(N1CCCC1)N1CC1C` (centres undefined): the T/C by setting is: (dose: 4.4 mg/kg/injection, schedule: Q01DX009 (ip), vehicle: saline) 109 % of control; (dose: 6.6 mg/kg/injection, schedule: Q01DX009 (ip), vehicle: saline) 120 % of control; under setting [5], 100 % of control; (dose: 25.0 mg/kg/injection, schedule: Q01DX009 (ip), vehicle: saline) 150 % of control; under setting [6], 108 % of control; (dose: 66.0 mg/kg/injection, schedule: Q04DX003 (ip), vehicle: saline) 166 % of control. For the same compound, the T/C is, setting by setting: under setting [3], 86 % of control; under setting [1], 175 % of control.

Regarding `CN(CCN1C(=O)c2c(Cl)c(Cl)c(Cl)c(Cl)c2C1=O)c1ccccc1`, the T/C by setting is: (dose: 50.0 mg/kg/injection, schedule: Q01DX001 (ip), vehicle: saline with Tween-80) 95 % of control; (dose: 100.0 mg/kg/injection, schedule: Q01DX001 (ip), vehicle: saline with Tween-80) 91 % of control; (dose: 200.0 mg/kg/injection, schedule: Q01DX001 (ip), vehicle: saline with Tween-80) 88 % of control.

Regarding `Nc1nc(N)nc(-c2cccnc2)n1`, the T/C was 109 % of control (dose: 100.0 mg/kg/injection, schedule: Q01DX001 (ip), vehicle: saline); 118 % of control (dose: 200.0 mg/kg/injection, schedule: Q01DX001 (ip), vehicle: saline); 100 % of control (dose: 400.0 mg/kg/injection, schedule: Q01DX001 (ip), vehicle: saline).

In the case of `CC1[C@@H]2CC=C3[C@H]4CCC5Cc6nc7c(nc6C[C@@]5(C)C4CC(=O)[C@]32CO[C@]12OC(C)(C)CC2O)CC1CC[C@@H]2C3=C[C@H]4O[C@@]5(O[C@@](C)(CO)C[C@@H]5O)C(C)[C@@]4(O)[C@]3(C)[C@@H](O)CC2[C@]1(C)C7` (some centres undefined), the T/C was 86 % of control (dose: 0.08 mg/kg/injection, schedule: Q01DX009 (ip), vehicle: saline + alcohol); 115 % of control and 117 % of control (dose: 10.0 micrograms/kg/injection, schedule: Q01DX005 (ip), vehicle: saline + alcohol); 114 % of control and 115 % of control (dose: 20.0 micrograms/kg/injection, schedule: Q01DX005 (ip), vehicle: saline + alcohol); 123 % of control (dose: 80.0 micrograms/kg/injection, schedule: Q01DX005 (ip), vehicle: saline + alcohol).

`CC1=NOC(=O)C1N=Nc1ccc(Br)cc1C` (centres undefined): the T/C reads like this: under setting [7], 101 % of control; (dose: 100.0 mg/kg/injection, schedule: Q05DX002 (ip), vehicle: saline with Tween-80) 99 % of control; under setting [8], 98 % of control; (dose: 200.0 mg/kg/injection, schedule: Q05DX002 (ip), vehicle: saline with Tween-80) 99 % of control; (dose: 400.0 mg/kg/injection, schedule: Q04DX002 (ip), vehicle: saline with Tween-80) 102 % of control.

For `CCC1C(=O)CC(c2ccc(OC)cc2)OC1c1ccc(OC)cc1` (centres undefined), the T/C was 88 % of control under setting [2], 96 % of control under setting [3] and 99 % of control under setting [4].

For the compound `CCOC(=O)C(CC)c1ccncc1C` (centres undefined), the T/C reads like this: (dose: 25.0 mg/kg/injection, schedule: Q04DX002 (ip), vehicle: saline with Tween-80) 106 % of control; (dose: 50.0 mg/kg/injection, schedule: Q04DX002 (ip), vehicle: saline with Tween-80) 114 % of control; under setting [7], 118 % of control; under setting [8], 110 % of control.

`O=C1CSC(c2ccccc2Cl)N1N1C(=O)CSC1c1ccccc1Cl` (centres undefined): the T/C is 100 % of control (dose: 60.0 mg/kg/injection, schedule: Q01DX005 (ip), vehicle: Klucel (hydroxypropylcellulose) (HPC)); 93 % of control (dose: 120.0 mg/kg/injection, schedule: Q01DX005 (ip), vehicle: Klucel (hydroxypropylcellulose) (HPC)); 98 % of control (dose: 240.0 mg/kg/injection, schedule: Q01DX005 (ip), vehicle: Klucel (hydroxypropylcellulose) (HPC)).

Regarding `COc1ccc2c(c1OC)C(CC(=O)O)N1CCc3cc4c(cc3C1C2)OCO4` (centres undefined), the T/C is 103 % of control (dose: 0.63 mg/kg/injection, schedule: Q01DX009 (ip), vehicle: distilled water + Tween-80); 99 % of control (dose: 1.25 mg/kg/injection, schedule: Q01DX009 (ip), vehicle: distilled water + Tween-80); 106 % of control (dose: 2.5 mg/kg/injection, schedule: Q01DX009 (ip), vehicle: distilled water + Tween-80); 101 % of control (dose: 5.0 mg/kg/injection, schedule: Q01DX009 (ip), vehicle: distilled water + Tween-80); 106 % of control (dose: 10.0 mg/kg/injection, schedule: Q01DX009 (ip), vehicle: distilled water + Tween-80); 94 % of control (dose: 20.0 mg/kg/injection, schedule: Q01DX009 (ip), vehicle: distilled water + Tween-80).

In the case of `CCCCCCN(CCCCCC)P(=O)(N1CC1C)N1CC1C` (centres undefined), the T/C (dose: 12.5 mg/kg/injection, schedule: Q01DX009 (ip), vehicle: saline with Tween-80) was 122 % of control; the T/C under setting [5] is 95 % of control; the T/C under setting [9] was 118 % of control; the T/C under setting [6] was 95 % of control; the T/C (dose: 50.0 mg/kg/injection, schedule: Q04DX003 (ip), vehicle: saline) was 95 % of control.

With `CNc1ncnc2ccccc12`, the T/C was 100 % of control under setting [9]; 95 % of control (dose: 50.0 mg/kg/injection, schedule: Q01DX009 (ip), vehicle: saline with Tween-80); 89 % of control (dose: 100.0 mg/kg/injection, schedule: Q01DX009 (ip), vehicle: saline with Tween-80).

On to `O=C(CSc1ncnc2nc[nH]c12)c1ccc([N+](=O)[O-])cc1`, for which the T/C was 92 % of control under setting [2], 102 % of control under setting [3] and 112 % of control under setting [4].

With `O=C1CCC(=O)N1CCCN1CCOCC1`, the T/C (dose: 60.0 mg/kg/injection, schedule: Q01DX005 (ip), vehicle: saline) was 89 % of control; the T/C (dose: 120.0 mg/kg/injection, schedule: Q01DX005 (ip), vehicle: saline) was 88 % of control; the T/C (dose: 240.0 mg/kg/injection, schedule: Q01DX005 (ip), vehicle: saline) is 99 % of control.
